Patent US11921116B2, “Enigma and CDH18 as companion diagnostics for CDK4 inhibitors” (Memorial Sloan Kettering Cancer Center, priority 2016, dated 2024)
Entries after “also recorded” stand apart in the source; their conditions may differ.

What was measured:
Assay type in all cases: cell-based
[1] = test system: non-responder cell line LS8107; assay: Senescence of LS8107 cells after CDK4 inhibition (SA-β-gal positive cells, ATRX foci)
[2] = test system: MDM2 protein levels in LS8107 cells; assay: MDM2 protein levels in LS8107 cells after CDK4 inhibition
Source text: The short hairpins used are as follows: TRCN0000161061: […] (SEQ ID NO: 4); and TRCN0000166638 (“EN638”): […] (SEQ ID NO: 5).

[3] = test system: MDM2 turnover in LS8107 cells; assay: Turnover (degradation) of MDM2 in LS8107 cells after CDK4 inhibition; settings: LS8107 cells with knockdown of Enigma, addition of PD0332991
Description: To determine if Enigma affects MDM2 protein levels post-translationally, the turnover of MDM2 was analyzed. […] To determine whether HAUSP and Enigma are the important regulators of MDM2 protein levels in response to treatment with a CDK4 inhibitor, concomitant knockdown of HAUSP and Enigma was performed.

[4] = LS8107 cells with Enigma knocked down (shRNA), treated with PD0332991
[5] = non-responder LS8107 cells, PD0332991 alone (no knockdown)

## CC(=O)c1c(C)c2cnc(Nc3ccc(N4CCNCC4)cn3)nc2n(C2CCCC2)c1=O [PD0332991]
[1]; [4]
  senescence: the cells entered senescence
[1]; [5]
  senescence as determined by the number of SA-β-gal positive cells: do not undergo senescence; also recorded: insufficient to induce senescence
[2]; [4]
  MDM2 protein levels: reduction in MDM2 protein levels
[2]; [5]
  MDM2 protein levels: do not reduce their MDM2 protein levels
[3]
  turnover of MDM2: increased the turnover of MDM2
